How the values were obtained:
[1] = tested on: anti-GAA antibody titers; assay: Effect of OPLS on immunogenicity of GAA protein; format: in vivo, mice; conditions: 5 mg dose with 1 μg GAA, 4 weekly s.c., 2 week rest
Method: Materials and Methods: GAA Source: Full length recombinant rhGAA was produced in Human Kidney Embryo Cells for our use by Creative Biomart (Shirley, N.Y.); OPLS Source: Sigma-Aldrich (St. Louis, Mo.). n=8 animals/group were immunized with 4 weekly s.c. injections of 1 μg of GAA in 100 μl of either sterile TRIS for the free group or in 5 mg OPLS in sterile TRIS for the OPLS-GAA group. A group of 8 mice will receive the same dose of CBrhGAA in 5 mg O-phospho-D-serine (OPDS) solution as a negative control. After a 2 week rest period, a blood sample from the saphenous vein will be collected. Samples were stored at −80° C. until analysis. These samples were then analyzed for anti-GAA Ab titers. Anti-GAA antibody titers were measured as follows: ELISA plate (maxisorp, NUNC) was coated with 50 μl of 5 μg/ml of sterile rhGAA in sodium carbonate-bicarbonate buffer pH =9.6. The plate was incubated overnight at 4° C. The plate was washed six times with PBS containing 0.05% Tween 20 (PBS-T, 250 μl/well) using an automated plate washer. The plate was blocked with PBS containing 1% BSA (300 μl/well) as the block buffer for 2 hr at 37° C. […] The reaction was stopped with 2 N sulfuric acid and read immediately at 450 nm using a micro-plate reader. The titer values are quantitated using a statistical endpoint method as described by Frey et al. Control plasma samples were run on each plate. […]

[2] = tested on: anti-FVIII antibody titers; assay: FVIII-specific tolerance with OPLS, OPDS or Dex, rechallenge with free FVIII (FIG. 11); conditions: s.c. co-administration with FVIII, then s.c. free FVIII
[3] = tested on: anti-GAA total titers; assay: OPLS-GAA sequential administration study; format: in vivo, Mice
Method: This examples describes OPLS-GAA sequential administration study. To determine if OPLS can exert its immunomodulatory effects on the immune response to GAA when the two are administered in separate spaced injections, at the same injection site the following experiments were carried out. Mice (n=6 animals/group) were immunized with 4 weekly sc injections as follows. One group of animals received one single combined injection of 5 mg OPLS and 1 μg rhGAA(100 μl volume). Recombinant human GAA was produced by Creative Biomart. The second group received one injection of 5 mg OPLS (100 μl volume) then after a 5 minute wait they received a second injection of 1 μg rhGAA in sterile TRIS (100 μl volume) in the same injection site. The final control group received one injection of sterile TRIS (100 μl volume) then after a 5 minute wait they received a second injection of 1 μg rhGAA in sterile TRIS (100 μl volume) in the same injection site. After a two week rest period a saphenous blood sample was collected. All of the mice were then rechallenged with 4 weekly injections of 1 μg of rhGAA in 100 μl sterile TRIS (one single injection). Analysis was done by ELISA for total titers. The mean free GAA after 6 weeks was 3135±910, When co-administered, the GAA was 787±155, and when administered separately (sequentially), the GAA was 926±202 (FIG. 26). After re-challenge, terminal sampling was done at week 11. The mean free GAA after 11 weeks was 8775±2363, When co-administered, the GAA was 895±335, and when administered separately (sequentially), the GAA was 1884±761. […] Either administration method was able to induce a hypo-responsiveness towards GAA.

[4] = Rituximab pharmacokinetics after iv and sc administration in isotonic and hypertonic buffers; format: in vivo, SW mice
Method: Preparation and characterization of injection buffers: One isotonic and six different hypertonic TRIS buffers were prepared to investigate the effects of hypertonicity and buffer composition on rituximab lymphatic uptake and plasma exposure (Table 1.).
Isotonic TRIS buffer was prepared using 25 mM TRIS and 150 mM NaCl (Buffer A). Hypertonic (600 mmol/kg) TRIS buffers were prepared with 25 mM of TRIS containing 300 mM NaCl (Buffer B). Buffers “C” and “E” contained NaCl as well as 20 mM of OPLS or Mannitol. To further delineate the effects of buffer composition on lymphatic uptake, we prepared two buffers at 600 mmol/kg with a 270 mM of OPLS (Buffer D) or mannitol (Buffer F). […] Osmolarity was measured using a 5500 Vapor Pressure Osmometer (Wescore Inc. Logen, Utah, USA) according to manufacturer's instruction.
Rituximab pharmacokinetics studies: 126 male SW mice were divided into 7 groups. […] The disposition of RXT will be determined from the iv PK profile and convoluted with the absorption data generated from the sc studies. […] Immediately before analysis; the inguinal lymph nodes were homogenized in 300 μl of PBS on ice and then analyzed.
Analysis of RXT in plasma and lymph node samples: Analysis of plasma and lymph node samples from PK studies was done with a standard ELISA. […] Optical density at 450 nm was measured using a plate reader.

Question: Which results are given for `N[C@H](COP(=O)(O)O)C(=O)O` [OPDS, O-Phospho-D-Serine, reference compound]?
Answer: Anti-GAA antibody titers vs GAA alone [1]: lower; FVIII-specific hypo-responsiveness upon rechallenge [2]: did not

Question: With “free GAA: Full length recombinant rhGAA produced in Human Kidney Embryo Cells by Creative Biomart” as the compound, how does the “Total titers (ELISA), week 11 after re-challenge” value ([3]; control group, rechallenge 4 weekly 1 μg rhGAA) read?
Answer: 8775±2363

Question: And the “Total titers (ELISA), week 6” value ([3]; control: TRIS then 1 μg rhGAA 5 min later, same site, 4 weekly sc)?
Answer: 3135±910

Question: Which results are given for “rituximab: Commercial preparation of rituximab (RXT)”?
Answer: sc bioavailability of rituximab ([4]; 1 μg/g in isotonic Buffer A): 0.29; Fraction of the dose taken up by the lymph nodes ([4]; 1 μg/g sc in isotonic Buffer A, estimated): 0.05

— US20220016241A1, “COMPOSITIONS AND METHODS FOR REDUCING ANTIGEN-SPECIFIC IMMUNOGENICITY” (The Research Foundation for The State University of New York, priority 2013, published 2022)
